For this data set, the system named is McpC ligand-binding domain (Salmonella Typhimurium SL1344). As to the kind of experiment: protein melting temperature (Tm) in presence of compound (degrees C); higher = more thermal stabilisation (possible ligand binding). The settings on record: compound stock concentration: 10-20 mM, 2 uL in 10 uL reaction.

As to `NC(=O)NC1NC(=O)NC1=O` (configuration not stated) [Allantoin], the protein melting temperature (Biolog plate: PM03B) was 44.2. On to `CC(=O)C(C)O` (configuration not stated) [3-Hydroxy-2-butanone], for which the protein melting temperature (Biolog plate: PM02A) turned out to be 43.5. For `CS(=O)(=O)CC[C@H](N)C(=O)O` [L-Methionine Sulfone], the protein melting temperature (Biolog plate: PM04A) worked out at 43.9.

Take `NCC(=O)N1CCC[C@H]1C(=O)O` [Gly-Pro]: the protein melting temperature (Biolog plate: PM01) came out at 44.2. Same read-out and setting: as for `C[C@H](O)[C@@H](N)C(=O)O` [D-Threonine], the figure is 44. For the molecule `CCCCCN` [N-Amylamine], where the note is “Biolog plate: PM03B”, the protein melting temperature was 44.9. `OC1OC[C@@H](O)[C@@H](O)[C@@H]1O` (stereo partly drawn) [D-Arabinose]: the protein melting temperature (Biolog plate: PM02A) turned out to be 43.6. In the case of `Cc1cn([C@H]2C[C@H](O)[C@@H](CO)O2)c(=O)[nH]c1=O` [Thymidine], the protein melting temperature runs as follows: (Biolog plate: PM01) 44.6; (Biolog plate: PM03B) 45.1; (Biolog plate: PM05) 44.7. In the case of `OC[C@H]1O[C@H](O[C@H]2O[C@H](CO)[C@@H](O)[C@H](O)[C@H]2O)[C@H](O)[C@@H](O)[C@@H]1O` [D-Trehalose], for the setting “Biolog plate: PM01”, the protein melting temperature came to 43.9. For the molecule `C[S+]([O-])CC[C@H](N)C(=O)O` (stereo partly drawn) [L-Methionine Sulfoxide], the protein melting temperature (Biolog plate: PM04A) was determined as 43.6. As for `CC(C)[C@H](N)C(=O)O` [L-Valine], the protein melting temperature is, setting by setting: (Biolog plate: PM02A) 44.5; (Biolog plate: PM03B) 45; (Biolog plate: PM05) 43.5.

Take `C[C@@H](O)[C@H](N)C(=O)O` [L-Threonine]: the protein melting temperature is, setting by setting: (Biolog plate: PM01) 44; (Biolog plate: PM03B) 44.8; (Biolog plate: PM05) 43.8. Consider `OC[C@H](O)C(O)[C@@H](O)CO` [L-Arabitol], for which the protein melting temperature (Biolog plate: PM02A) worked out at 43.8.

Take `CC(=O)N[C@@H](CO)[C@@H](O)[C@H](O)[C@H](O)CO` [N-Acetyl-D-Glucosaminitol]: the protein melting temperature (Biolog plate: PM02A) stood at 44.1. The same measure, in the same setting: for `COC(=O)[C@@H](C)O` [D-Lactic acid Methyl Ester] the value was 44.4. With `Cc1cc2nc3c(=O)[nH]c(=O)nc-3n(C[C@H](O)[C@H](O)[C@H](O)CO)c2cc1C` [Riboflavin], under “Biolog plate: PM05”, the protein melting temperature came to 43.6.

Consider `O=C[C@H](O)[C@@H](O)[C@H](O)[C@H](O)CO[C@@H]1O[C@H](CO)[C@@H](O)[C@H](O)[C@H]1O` [Gentiobiose], for which the protein melting temperature (Biolog plate: PM02A) stood at 44.5. On to `CC1(O)CCOC(=O)C1` (racemic) [DL-Mevalonic acid Lactone], for which the protein melting temperature (Biolog plate: PM05) came out at 43.8. Regarding `O=S(=O)(O)SSS(=O)(=O)O` [Tetrathionate], the protein melting temperature (Biolog plate: PM04A) came to 42.7.

Regarding `CC[C@H](C)[C@H](N)C(=O)O` [L-Isoleucine], the protein melting temperature (Biolog plate: PM02A) amounted to 44.3, the protein melting temperature (Biolog plate: PM03B) was determined as 44.8 and the protein melting temperature (Biolog plate: PM05) amounted to 44.7. Consider `NC(=O)c1[nH]cnc1N` [(5) 4-Amino-Imidazole-4(5)-Carboxamide], for which, where the note is “Biolog plate: PM05”, the protein melting temperature was found to be 43.7. With `NCCS(=O)(=O)O` [Taurine], the protein melting temperature (Biolog plate: PM04A) was 44.2. Same read-out and setting: as for `O=S(=O)(O)CCO` [2-Hydroxyethane Sulfonic acid], the figure is 44.6. For the molecule `C[C@@H](O)CC(=O)O` [b-Hydroxybutyric acid], the protein melting temperature (Biolog plate: PM02A) was 44.6. For the molecule `CCC(N)C(=O)O` (racemic) [DL-a-Amino-N-Butyric acid], for the setting “Biolog plate: PM03B”, the protein melting temperature was 44.3.

In the case of `O=C(CO)[C@@H](O)[C@H](O)[C@H](O)CO` [D-Fructose], the protein melting temperature (Biolog plate: PM01) stood at 44.3. As for `NC(N)=O` [Urea], under “Biolog plate: PM03B”, the protein melting temperature turned out to be 46.5. For `Cc1ncc(CO)c(CN)c1O` [Pyridoxamine], for the setting “Biolog plate: PM05”, the protein melting temperature was found to be 43.9.

As for `CC(=O)N[C@@H](CS)C(=O)O` [N-Acetyl-L-Cysteine], the protein melting temperature (Biolog plate: PM04A) is 43.7. Take `CO[C@@H]1O[C@H](CO)[C@H](O)[C@H](O)[C@H]1O` [b-Methyl-D-Galactoside]: the protein melting temperature (Biolog plate: PM02A) stood at 43.7. On to `N[C@@H](Cc1c[nH]c2ccccc12)C(=O)O` [L-Tryptophan], for which the protein melting temperature (Biolog plate: PM03B) was 44.4 and the protein melting temperature (Biolog plate: PM05) amounted to 44. Consider `O=C[C@H](O)[C@@H](O)[C@H](O)[C@H](O)COP(=O)(O)O` [D-Glucose-6-Phosphate], for which the protein melting temperature was found to be 44.6 (Biolog plate: PM01) and 43.8 (Biolog plate: PM04A). Consider `O=PO` [Hypophosphite], for which the protein melting temperature (Biolog plate: PM04A) was 44.1.

Take `Cc1cn([C@H]2C[C@H](OP(=O)(O)O)[C@@H](CO)O2)c(=O)[nH]c1=O` [Thymidine 3`-Monophosphate]: under “Biolog plate: PM04A”, the protein melting temperature came out at 43.6. Take `N[C@@H](CC(=O)O)C(=O)O` [L-Aspartic acid]: the protein melting temperature is, setting by setting: (Biolog plate: PM01) 44.5; (Biolog plate: PM03B) 45.4; (Biolog plate: PM05) 44.2. In the case of `NCC(O)c1ccc(O)cc1` (racemic) [D,L-Octopamine], the protein melting temperature (Biolog plate: PM02A) was 43.9.

Turning to `NCCS` [Cysteamine], the protein melting temperature (Biolog plate: PM04A) was 42.8. For the molecule `CSCC[C@H](N)C(=O)N[C@@H](C)C(=O)O` [Met-Ala], the protein melting temperature (Biolog plate: PM03B) is 44.9.

On to `CO[C@@H]1O[C@H](C(=O)O)[C@@H](O)[C@H](O)[C@H]1O` [b-Methyl-D-Glucuronic acid], for which the protein melting temperature (Biolog plate: PM02A) was 44.1. `O=C[C@H](O)[C@H](O)[C@@H](O)CO` [L-Lyxose]: the protein melting temperature (Biolog plate: PM01) came out at 44.7. Still for that read-out and setting: as for `CO[C@@H]1O[C@H](CO)[C@@H](O)[C@H](O)[C@H]1O` [b-Methyl-D-Glucoside], the figure is 44.7. As for `O=P(O)(O)OC(CO)CO` [b-Glycerol Phosphate], the protein melting temperature (Biolog plate: PM04A) came out at 44.3.

Consider `Nc1ccn([C@@H]2O[C@H](CO)[C@@H](O)[C@H]2OP(=O)(O)O)c(=O)n1` [Cytidine 2`-Monophosphate], for which the protein melting temperature (Biolog plate: PM04A) is 43.7. The same measure, in the same setting: as for `N[C@@H](COP(=O)(O)O)C(=O)O` [O-Phospho-L-Serine], the figure is 43.9. Still for that read-out and setting: for `C=C(OP(=O)(O)O)C(=O)O` [Phosphoenol Pyruvate] the value was 43.9.

For the molecule `Nc1ccc(C(=O)O)cc1` [p-Amino-Benzoic acid], where the note is “Biolog plate: PM05”, the protein melting temperature was determined as 43.7. With `OC[C@@]12OC[C@@H](O1)[C@@H](O)[C@@H](O)[C@@H]2O` [Sedoheptulosan], for the setting “Biolog plate: PM02A”, the protein melting temperature was 44.3. Regarding `Nc1nc2c(ncn2[C@@H]2O[C@H](CO)[C@@H](OP(=O)(O)O)[C@H]2O)c(=O)[nH]1` [Guanosine 3`-Monophosphate], the protein melting temperature (Biolog plate: PM04A) stood at 43.9. Same read-out and setting: for `Nc1nc2c(ncn2[C@@H]2O[C@H](CO)[C@@H](O)[C@H]2OP(=O)(O)O)c(=O)[nH]1` [Guanosine 2`-Monophosphate] the value was 44.

Consider `Nc1nc(=O)c2nc(CNc3ccc(C(=O)N[C@@H](CCC(=O)O)C(=O)O)cc3)cnc2[nH]1` [Folic acid], for which, for the setting “Biolog plate: PM05”, the protein melting temperature amounted to 43.8. Consider `CCCCN` [N-Butylamine], for which the protein melting temperature (Biolog plate: PM03B) came out at 45.3. In the case of `N[C@@H](CS(=O)(=O)O)C(=O)O` [L-Cysteic acid], the protein melting temperature (Biolog plate: PM04A) came to 43.1. On to `OC[C@H]1OC(O)[C@H](O)[C@@H](O)[C@H]1O` (stereo partly drawn) [D-Galactose], for which, for the setting “Biolog plate: PM01”, the protein melting temperature worked out at 44.8.

In the case of `Cc1ncc(C[n+]2csc(CCOP(=O)(O)OP(=O)(O)O)c2C)c(N)n1` [Thiamine Pyrophosphate], the protein melting temperature (Biolog plate: PM05) is 43.7. Consider `OC[C@H]1O[C@@H]2O[C@H]3[C@H](O)[C@@H](O)[C@@H](O[C@H]4[C@H](O)[C@@H](O)[C@@H](O[C@H]5[C@H](O)[C@@H](O)[C@@H](O[C@H]6[C@H](O)[C@@H](O)[C@@H](O[C@H]7[C@H](O)[C@@H](O)[C@@H](O[C@H]8[C@H](O)[C@@H](O)[C@@H](O[C@H]9[C@H](O)[C@@H](O)[C@@H](O[C@H]1[C@H](O)[C@H]2O)O[C@@H]9CO)O[C@@H]8CO)O[C@@H]7CO)O[C@@H]6CO)O[C@@H]5CO)O[C@@H]4CO)O[C@@H]3CO` [g-Cyclodextrin], for which the protein melting temperature (Biolog plate: PM02A) is 44.7. Turning to `O=C(O)CC[C@@H](C(=O)O)N1C(=O)c2ccccc2C1=O` [N-Phthaloyl-L-Glutamic acid], the protein melting temperature (Biolog plate: PM03B) turned out to be 44.9. Regarding `N[C@@H](CCC(=O)N[C@@H](CS)C(=O)NCC(=O)O)C(=O)O` [Glutathione], the protein melting temperature by setting is: (Biolog plate: PM04A) 43.7; (Biolog plate: PM05) 43.6.

For the molecule `O=C(O)CCCC[C@@H]1SC[C@@H]2NC(=O)N[C@@H]21` [D-Biotin], the protein melting temperature (Biolog plate: PM05) was determined as 44.5.

In the case of `CC(O)(CC(=O)O)C(=O)O` (configuration not stated) [Citramalic acid], the protein melting temperature (Biolog plate: PM02A) worked out at 44.1. On the same count and under the same terms, as for `CCCCCC(=O)O` [Caproic acid], the figure is 43.3. In the case of `Nc1ccn([C@@H]2O[C@H](CO)[C@@H](O)[C@H]2O)c(=O)n1` [Cytidine], the protein melting temperature runs as follows: (Biolog plate: PM03B) 44.7; (Biolog plate: PM05) 43.9. Consider `NCCO` [Ethanolamine], for which the protein melting temperature (Biolog plate: PM03B) was found to be 44.4.

`CCC(=O)O` [Propionic acid]: the protein melting temperature (Biolog plate: PM01) was determined as 44.9.

With `O=C1NC(=O)C(=O)N1` [Parabanic acid], the protein melting temperature (Biolog plate: PM03B) came to 44. As for `CC(=O)CC(=O)O` [Acetoacetic acid], the protein melting temperature (Biolog plate: PM01) stood at 44.6. As for `NCC(=O)N[C@@H](CCC(N)=O)C(=O)O` [Gly-Gln], the protein melting temperature (Biolog plate: PM03B) is 45.2. Turning to `CSC[C@H](N)C(=O)O` [S-Methyl-L-Cysteine], the protein melting temperature (Biolog plate: PM04A) came to 43.7. Regarding `N#C[C@H](O[C@@H]1O[C@H](CO[C@@H]2O[C@H](CO)[C@@H](O)[C@H](O)[C@H]2O)[C@@H](O)[C@H](O)[C@H]1O)c1ccccc1` [Amygdalin], the protein melting temperature (Biolog plate: PM02A) turned out to be 44.3. In the case of `OC[C@H]1O[C@@H](S)[C@H](O)[C@@H](O)[C@@H]1O` [1-Thio-b-D-Glucose], the protein melting temperature (Biolog plate: PM04A) came out at 44.5. On to `O=C(CO)[C@@H](O)[C@H](O)[C@@H](O)C(=O)O` [5-Keto-D-Gluconic acid], for which the protein melting temperature (Biolog plate: PM02A) came out at 43.9.

As to `NC(=O)CC[C@H](N)C(=O)O` [L-Glutamine], the protein melting temperature by setting is: (Biolog plate: PM01) 44; (Biolog plate: PM03B) 45.1; (Biolog plate: PM05) 44.9.
